Converted amounts (≈) assume the structure as drawn. Counter-ions that a name gives are not always drawn. Like-named read-outs stand apart in the source and are kept apart here.
What was measured:
Assay type in all cases: cell-based
[1] = system: E. coli NIHJ; test: Antibacterial activity (MIC, agar plate, standard method of the Japanese Chemotherapeutic Society); details: 10^4 cells/plate, 37° C., 20 hours
Description: (§1) According to the standard method of the Japanese Chemotherapeutic Society [Chemotherapy, Vol. 23, Pages 1-2 (1975)], a culture obtained by cultivating bacteria in Heart Infusion broth (manufactured by Eken Kagakusha) at 37° C. for 20 hours was inoculated into a Heart Infusion agar medium (manufactured by Eiken Kagakusha) and cultivated at 37° C. for 20 hours, after which the growth of bacteria was examined visually. The minimum inhibitory concentration at which the bacterial growth was inhibited was taken as MIC (μg/ml). The amount of the inoculated bacteria was 10^4 cells/plate (10^6 cells/ml).

[2] = system: Klebsiella spp Y-72; test: Antibacterial activity (MIC, agar plate); details: Klebsiella spp Y-72, 10^4 cells/plate, 37° C., 20 hours
Description: as §1

[3] = system: Kl. pneumoniae Y-50; test: Antibacterial activity (MIC, agar plate); details: 37° C., 20 hours
Description: as §1

[4] = system: Pro. mirabilis T-111; test: Antibacterial activity (MIC, agar plate)
Description: as §1

[5] = system: E. coli TK3 (Penicillinase-producing bacteria); test: Antibacterial activity (MIC, agar plate)
Description: as §1

[6] = system: Aci. calcoaceticus A-6; test: Antibacterial activity (MIC, agar plate); details: 37° C., 20 hours
Description: as §1

[7] = system: Pro. morganii T-216; test: Antibacterial activity (MIC, agar plate)
Description: as §1

[8] = system: Pro. vulgaris GN76 (Cephalosporinase-producing bacteria); test: Antibacterial activity (MIC, agar plate)
Description: as §1

[9] = system: Al. faecalis B-1; test: Antibacterial activity (MIC, agar plate)
Description: as §1

[10] = system: Pro. mirabilis T-100; test: Antibacterial activity (MIC, agar plate); details: 37° C., 20 hours
Description: as §1

[11] = system: Kl. pneumoniae Y-41; test: Antibacterial activity (MIC, agar plate); details: Kl. pneumoniae Y-41, 10^4 cells/plate, 37° C., 20 hours
Description: as §1

[12] = system: Ser. marcescens IID620; test: Antibacterial activity (MIC, agar plate)
Description: as §1

[13] = system: Ent. cloacae IID977; test: Antibacterial activity (MIC, agar plate); details: 10^4 cells/plate, 37° C., 20 hours
Description: as §1

[14] = Escherichia coli, read-out: MIC
[15] = Klebsiella pneumoniae, Y50, 10^4 cells/plate, read-out: MIC
[16] = Acinetobacter calcoaceticus, A6, 10^4 cells/plate, read-out: MIC
[17] = Morganella morganii, T216, 20 h
[18] = Alcaligenes faecalis, B1, Al. faecalis B-1, 10^4 cells/plate, 37° C., 20 hours, read-out: MIC
[19] = Proteus mirabilis, T100, 10^4 cells/plate, read-out: MIC
[20] = Klebsiella pneumoniae, Y41, read-out: MIC
[21] = Serratia marcescens, IID620, 20 h
[22] = Enterobacter cloacae, read-out: MIC
[23] = Morganella morganii, T216, Pro. morganii T-216, 10^4 cells/plate, 37° C., 20 hours, read-out: MIC
[24] = Proteus vulgaris, Pro. vulgaris GN76 (cephalosporinase-producing), 10^4 cells/plate, 37° C., 20 hours, read-out: MIC
[25] = Serratia marcescens, Ser. marcescens IID620, 10^4 cells/plate, 37° C., 20 hours, read-out: MIC

Row | Structure (SMILES) | MIC [1, 14] | MIC ([2]; Y72, read-out: MIC) | MIC [3, 15] | MIC ([4]; Proteus mirabilis, T111, 20 h) | MIC ([5]; Escherichia coli, 20 h) | MIC [6, 16] | MIC [7, 17] | MIC ([8]; Proteus vulgaris, GN76, 20 h) | MIC [9, 18] | MIC [10, 19] | MIC [11, 20] | MIC [12, 21] | MIC [13, 22] | MIC [7, 23] | MIC [8, 24] | MIC [12, 25] | also measured
1 | CO/N=C(\C(=O)NC1C(=O)N2C(C(=O)O)=C(Cn3cnc(NC(C)=O)n3)CS[C@H]12)c1csc(N)n1.O=C(O)C(F)(F)F (stereo partly drawn) [A, Trifluoroacetic acid salt of 7-[2-(2-aminothiazol-4-yl)-2-(syn)-methoxyiminoacetamido]-3-[(3-acetamido-1,2,4-triazolyl)methyl]-Δ^3-cephem-4-carboxylic acid] |  |  |  |  |  |  |  |  |  |  |  |  |  |  |  |  | MIC [1]: ≤ 0.1 µg/mL; MIC [2]: 6.25 µg/mL; MIC ([3]; 10^4 cells/plate): ≤ 0.1 µg/mL; MIC ([4]; Pro. mirabilis T-111, 10^4 cells/plate, 37° C., 20 hours): 0.2 µg/mL; MIC ([5]; E. coli TK3 (penicillinase-producing), 10^4 cells/plate, 37° C., 20 hours): 0.39 µg/mL; MIC ([6]; 10^4 cells/plate): 25 µg/mL; MIC ([7]; Pro. morganii T-216, 10^4 cells/plate, 37° C., 20 hours): 0.2 µg/mL; MIC ([8]; Pro. vulgaris GN76 (cephalosporinase-producing), 10^4 cells/plate, 37° C., 20 hours): 3.13 µg/mL; MIC ([9]; Al. faecalis B-1, 10^4 cells/plate, 37° C., 20 hours): 50 µg/mL; MIC ([10]; 10^4 cells/plate): ≤ 0.1 µg/mL; MIC [11]: 0.2 µg/mL; MIC ([12]; Ser. marcescens IID620, 10^4 cells/plate, 37° C., 20 hours): 0.78 µg/mL; MIC [13]: 6.25 µg/mL
2 | CO/N=C(\C(=O)NC1C(=O)N2C(C(=O)O)=C(CNC(=O)c3ccco3)CSC12)c1csc(N)n1 (stereo not drawn) [B, Trifluoroacetic acid salt of 7-[2-(2-aminothiazol-4-yl)-2-(syn)-methoxyiminoacetamido]-3-(furan-2-yl-carboxamido)methyl-Δ^3-cephem-4-carboxylic acid] | ≤ 0.1 µg/mL | 1.56 µg/mL | ≤ 0.1 µg/mL | 0.2 µg/mL | 0.39 µg/mL | 25 µg/mL | 0.39 µg/mL | 0.78 µg/mL | 12.5 µg/mL | ≤ 0.1 µg/mL | 0.2 µg/mL | 0.2 µg/mL | 25 µg/mL |  |  |  | 
3 | CO/N=C(\C(=O)NC1C(=O)N2C(C(=O)O)=C(CNC(C)=O)CSC12)c1csc(N)n1 (stereo not drawn) [C, Trifluoroacetic acid salt of 7-[2-(2-aminothiazol-4-yl)-2-(syn)-methoxyiminoacetamido]-3-acetamidomethyl-Δ^3-cephem-4-carboxylic acid] | ≤ 0.1 µg/mL | 6.25 µg/mL | ≤ 0.1 µg/mL | 0.39 µg/mL | 0.39 µg/mL | 12.5 µg/mL |  |  | 12.5 µg/mL | ≤ 0.1 µg/mL | 0.2 µg/mL |  | 50 µg/mL | 0.78 µg/mL | 6.25 µg/mL | 1.56 µg/mL | 
4 | Cc1nnc(SCC2=C(C(=O)O)N3C(=O)[C@@H](NC(=O)Cn4cnnn4)[C@H]3SC2)s1 [Cephazoline, reference compound] | 1.56 µg/mL (≈ 3.43 µM) | > 200 µg/mL | 1.56 µg/mL (≈ 3.43 µM) |  |  | 200 µg/mL (≈ 440 µM) |  |  | 100 µg/mL (≈ 220 µM) |  | 3.13 µg/mL (≈ 6.89 µM) |  | > 200 µg/mL | > 200 µg/mL | > 200 µg/mL | > 200 µg/mL | MIC ([4]; Proteus mirabilis, T111, Pro. mirabilis T-111, 10^4 cells/plate, 37° C., 20 hours, read-out: MIC): 6.25 µg/mL (≈ 13.8 µM); MIC ([5]; Escherichia coli, E. coli TK3 (penicillinase-producing), 10^4 cells/plate, 37° C., 20 hours, read-out: MIC): 25 µg/mL (≈ 55 µM)
5 | CO/N=C(\C(=O)NC1C(=O)N2C(C(=O)O)=C(Cn3ncnn3)CSC12)c1csc(N)n1 (stereo not drawn) [F, Trifluoroacetic acid salt of 7-[2-(2-aminothiazol-4-yl)-2-(syn)-methoxyiminoacetamido]-3-[2-(1,2,3,4-tetrazolyl)methyl]-Δ^3-cephem-4-carboxylic acid] | ≤ 0.1 µg/mL |  | ≤ 0.1 µg/mL | ≤ 0.1 µg/mL | ≤ 0.1 µg/mL | 6.25 µg/mL | ≤ 0.1 µg/mL |  |  |  | ≤ 0.1 µg/mL | 0.39 µg/mL | 12.5 µg/mL |  | 0.78 µg/mL |  | MIC ([9]; Alcaligenes faecalis, B1, 20 h): 3.13 µg/mL
6 | CO/N=C(\C(=O)NC1C(=O)N2C(C(=O)O)=C(Cn3cnnn3)CSC12)c1csc(N)n1 (stereo not drawn) [G, Trifluoroacetic acid salt of 7-[2-(2-aminothiazol-4-yl)-2-(syn)-methoxyiminoacetamido]-3-[1-(1,2,3,4-tetrazolyl)methyl]-Δ^3-cephem-4-carboxylic acid] | ≤ 0.1 µg/mL |  | ≤ 0.1 µg/mL | 0.2 µg/mL | 0.39 µg/mL | 25 µg/mL | 0.2 µg/mL | 0.78 µg/mL | 12.5 µg/mL |  | 0.2 µg/mL |  | 6.25 µg/mL |  |  | 1.56 µg/mL | 

— patent US4879381A, “7-(substituted or unsubstituted amino) 3-substituted methyl-^3 cephem-4-carboxylic acid” (Toyoma Chemical Company, Ltd., priority 1980, dated 1989)
